Drawing on patent US7858621B2 (Amorepacific Corporation, priority 2006, dated 2010), this text covers IC50 for 12 compounds.

Molecules are shown by their SMILES. Structures can show the parent of a compound that is named as a salt.

T1 sequence (O35433 whole entry): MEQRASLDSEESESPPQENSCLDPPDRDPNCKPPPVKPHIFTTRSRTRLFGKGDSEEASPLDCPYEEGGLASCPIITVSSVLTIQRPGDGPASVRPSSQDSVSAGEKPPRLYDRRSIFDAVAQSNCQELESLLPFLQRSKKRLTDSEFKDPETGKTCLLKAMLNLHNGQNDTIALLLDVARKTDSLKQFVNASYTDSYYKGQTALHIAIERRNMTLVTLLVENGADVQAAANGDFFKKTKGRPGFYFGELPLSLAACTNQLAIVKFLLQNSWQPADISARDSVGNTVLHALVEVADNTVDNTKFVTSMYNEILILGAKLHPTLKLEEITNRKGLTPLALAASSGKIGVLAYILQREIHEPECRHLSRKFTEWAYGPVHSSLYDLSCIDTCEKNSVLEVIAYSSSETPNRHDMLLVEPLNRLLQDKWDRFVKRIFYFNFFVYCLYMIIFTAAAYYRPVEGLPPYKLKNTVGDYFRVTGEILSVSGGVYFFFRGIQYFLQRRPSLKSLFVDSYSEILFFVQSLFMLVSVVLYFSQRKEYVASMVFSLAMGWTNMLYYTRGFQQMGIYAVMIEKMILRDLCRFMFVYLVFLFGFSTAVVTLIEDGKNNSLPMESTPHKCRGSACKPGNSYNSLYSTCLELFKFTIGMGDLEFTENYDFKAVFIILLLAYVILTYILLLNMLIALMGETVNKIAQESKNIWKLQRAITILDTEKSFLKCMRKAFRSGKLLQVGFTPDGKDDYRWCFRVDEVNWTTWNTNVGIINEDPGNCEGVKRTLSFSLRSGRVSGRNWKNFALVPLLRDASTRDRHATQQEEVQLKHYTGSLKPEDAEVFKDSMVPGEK

The assay addresses T1, vanilloid receptor (Rattus norvegicus, UniProt O35433).
T1 construct: DRG nerve cells from the primary culture of 2 days were equilibrated; endogenous in cells; host or cells: primary culture of dorsal root ganglion neurons from neonatal SD rats
Description: 45Ca influx test in cultured neonatal rat DRG neurons, inhibition of capsaicin response. The note with it: neonatal rat DRG neurons, capsaicin 0.5 μM, 45Ca influx; read-out: Antagonist Calcium Uptake Test (IC50). The format is cell-based. In a few lines: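 45Ca influx measured by scintillation counting of SDS-eluted neurons after 10 min at room temperature with test compound, 0.5 μM capsaicin (final) and 10 μCi/ml 45Ca in Ca/Mg-free HEPES-HBSS pH 7.4. Cells: primary DRG neurons from newborn SD rats, cultured 2 days with NGF and Ara-C.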
As to `CCOC(=O)C1CCN(c2nc(C(F)(F)F)ccc2/C=C/C(=O)NCc2cc(F)c(NS(C)(=O)=O)c(C#N)c2)CC1` [Example 111, N-(3-Cyano-5-fluoro-4-methansulfonylamino-benzyl)-3-[2-(4-ethoxycarbonyl-piperid-1-yl)-6-trifluoromethyl-pyridin-3-yl]-acrylamide], the IC50 (commonly the concentration that gives 50% inhibition) was determined as 820 nM.
The same measure for `CS(=O)(=O)Nc1ccc(CNC(=O)/C=C/c2ccc(C(F)(F)F)nc2OCc2ccccc2)cc1F` [Example 112, 3-(2-Benzyloxy-6-trifluoromethyl-pyridin-3-yl)-N-(3-fluoro-4-methanesulfonylamino-benzyl)-acrylamide]: 1400 nM; for `C#Cc1cc(CNC(=O)/C=C/c2ccc(C(F)(F)F)nc2Nc2ccccc2)cc(F)c1NS(C)(=O)=O` [Example 113, N-(3-Ethynyl-5-fluoro-4-methanesulfonylamino-benzyl)-3-(2-phenylamino-6-trifluoromethyl-pyridin-3-yl)-acrylamide]: 270 nM.
The same measure for `C#Cc1cc(CNC(=O)/C=C/c2ccc(C(F)(F)F)nc2N2CCCC(C(=O)OCC)C2)cc(F)c1NS(C)(=O)=O` (stereo not drawn) [Example 114, N-(3-Ethynyl-5-fluoro-4-methansulfonylamino-benzyl)-3-[2-(3-ethoxycarbonyl-piperid-1-yl)-6-trifluoromethyl-pyridin-3-yl]-acrylamide]: 430 nM; for `CCOC(=O)C1CCCN(c2nc(C(F)(F)F)ccc2/C=C/C(=O)NCc2cc(F)c(NS(C)(=O)=O)c(C#N)c2)C1` (stereo not drawn) [Example 115, N-(3-Cyano-5-fluoro-4-methansulfonylamino-benzyl)-3-[2-(3-ethoxycarbonyl-piperid-1-yl)-6-trifluoromethyl-pyridin-3-yl]-acrylamide]: 470 nM; for `C#Cc1cc(CNC(=O)/C=C/c2ccc(C(F)(F)F)nc2N2CCNCC2)cc(F)c1NS(C)(=O)=O` [Example 116, N-(3-Ethynyl-5-fluoro-4-methanesulfonylamino-benzyl)-3-(2-piperaz-1-yl-6-trifluoromethyl-pyridin-3-yl)-acrylamide, HCl salt]: 4500 nM.
In the case of `C#Cc1cc(CNC(=O)/C=C/c2ccc(C(F)(F)F)nc2NC(C)CC)cc(F)c1NS(C)(=O)=O` (stereo not drawn) [Example 117, 3-(2-sec-Butylamino-6-trifluoromethyl-pyridin-3-yl)-N-(3-ethynyl-5-fluoro-4-methanesulfonylamino-benzyl)-acrylamide], the IC50 is 77 nM.
The same measure for `CC(C)CCOc1nc(C(F)(F)F)ccc1/C=C/C(=O)NCc1cc(F)c(NS(C)(=O)=O)c(C#N)c1` [Example 118, N-(3-Cyano-5-fluoro-4-methanesulfonylamino-benzyl)-3-[2-(3-methyl-butoxy)-6-trifluoromethyl-pyridin-3-yl]-acrylamide]: 200 nM; for `C#Cc1cc(CNC(=O)/C=C/c2ccc(C(F)(F)F)nc2-c2ccsc2)cc(F)c1NS(C)(=O)=O` [Example 119, N-(3-Ethynyl-5-fluoro-4-methanesulfonylamino-benzyl)-3-(2-thien-3-yl-6-trifluoromethyl-pyridin-3-yl)-acrylamide]: 270 nM; for `C#Cc1cc(CNC(=O)/C=C/c2ccc(C(F)(F)F)nc2-c2cccc(F)c2)cc(F)c1NS(C)(=O)=O` [Example 120, N-(3-Ethynyl-5-fluoro-4-methanesulfonylamino-benzyl)-3-[2-(3-fluoro-phenyl)-6-trifluoromethyl-pyridin-3-yl]-acrylamide]: 310 nM.
The same measure for `CC(C)Nc1nc(C(F)(F)F)ccc1/C=C/C(=O)NCc1ccc(NS(C)(=O)=O)c(F)c1` [Example 121, N-(3-Fluoro-4-methanesulfonylamino-benzyl)-3-(2-isopropylamino-6-trifluoromethyl-pyridin-3-yl)-acrylamide]: 120 nM; for `CC(C)Nc1nc(C(F)(F)F)ccc1/C=C/C(=O)NCc1cc(F)c(NS(C)(=O)=O)c(C#N)c1` [Example 122, N-(3-Cyano-5-fluoro-4-methanesulfonylamino-benzyl)-3-(2-isopropylamino-6-trifluoromethyl-pyridin-3-yl)-acrylamide]: 76 nM.
